Assay results published in US20070010551A1, “Quinoline derivatives as neutrophil elastase inhibitors and their use” (priority 2003, published 2007).

The molecules below were run against T1, Human Neutrophil Elastase (HNE) (Homo sapiens, UniProt P08246) (assay: Human Neutrophil Elastase Quenched-FRET Assay). Conditions: HNE purified from serum; substrate MeOSuc-AAPV-AMC; 15 min preincubation, 30 min incubation at room temperature; read-out: Inhibition of Human Neutrophil Elastase IC50.
T1 construct: Human Neutrophil Elastase (HNE) purified from serum; purchased Calbiochem 324681; host or cells: natural human material (serum)
T1 sequence (P08246 30-247 limits assumed): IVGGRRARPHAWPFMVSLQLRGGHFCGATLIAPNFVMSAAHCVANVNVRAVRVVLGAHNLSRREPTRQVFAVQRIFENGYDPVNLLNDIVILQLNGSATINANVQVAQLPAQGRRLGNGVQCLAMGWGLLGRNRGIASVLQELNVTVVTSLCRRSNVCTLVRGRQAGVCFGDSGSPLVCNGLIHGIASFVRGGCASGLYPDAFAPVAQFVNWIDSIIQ
Assay type: biochemical
Method: Human Neutrophil Elastase Quenched-FRET Assay
The assay uses Human Neutrophil Elastase (HNE) purified from serum (Calbiochem art. 324681; Ref. Baugh, R. J. et al., 1976, Biochemistry. 15, 836-841). HNE was stored in 50 mM NaOAc, 200 mM NaCl, pH 5.5 with added 30% glycerol at −20° C. The protease substrate used was Elastase Substrate V Fluorogenic, MeOSuc-AAPV-AMC (Calbiochem art. 324740; Ref. Castillo, M. J. et al., 1979, Anal. Biochem. 99, 53-64). The substrate was stored in DMSO at −20° C. The assay additions were as follows: Test compounds and controls were added to black 96-well flat-bottom plates (Greiner 655076), 1 μL in 100% DMSO, followed by 30 μL HNE in assay buffer with 0.01% TritonX-100. The assay buffer constitution was: 100 mM Tris (pH 7.5) and 500 mM NaCl. The enzyme and the compounds were incubated at room temperature for 15 minutes. Then 30 μl substrate in assay buffer was added. The assay was stopped after 30 minutes incubation at room temperature by adding 60 μl stop solution (140 mM acetic acid, 200 mM sodium monochloroacetate, 60 mM sodium acetate, pH 4.3). Fluorescence was measured on a Wallac 1420 Victor 2 instrument at settings: Excitation 380 nm, Emission 460 nm. IC50 values were determined using Xlfit curve fitting using model 205.

In order of rising IC50:
1. CC(=O)Nc1ccc(CNC(=O)c2cc3ccccc3n(-c3cccc(C(F)(F)F)c3)c2=O)cc1 [Example 2.66, N-[4-(Acetylamino)benzyl]-2-oxo-1-[3-(trifluoromethyl)phenyl]-1,2-dihydroquinoline-3-carboxamide]  0.32 µM
2. O=C(NCC1COc2ccccc2O1)c1cc2ccccc2n(-c2cccc(C(F)(F)F)c2)c1=O (stereo not drawn) [Example 2.51, N-(2,3-Dihydro-1,4-benzodioxin-2-ylmethyl)-2-oxo-1-[3-(trifluoromethyl)phenyl]-1,2-dihydroquinoline-3-carboxamide]  0.39 µM
3. O=C(NCc1ccc(F)c(F)c1)c1cc2ccccc2n(-c2cccc(C(F)(F)F)c2)c1=O [Example 2.26, N-(3,4-Difluorobenzyl)-2-oxo-1-[3-(trifluoromethyl)phenyl]-1,2-dihydroquinoline-3-carboxamide]  0.5 µM
